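A five-concentration, 48-hour dose response in 96-well plates underlies each endpoint, interpolated linearly between surrounding concentrations. The concentration for 50% growth inhibition is given as GI50. At the TGI there is no net growth.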
Tests used:
Assay in all cases: NCI-60 cell line screen, 48 h
[1] = tested on: 786-0 renal
[2] = tested on: A549 NSCLC
[3] = tested on: ACHN renal
[4] = tested on: CAKI-1 renal
[5] = tested on: CCRF-CEM leukemia
[6] = tested on: COLO 205 colon
[7] = tested on: DU-145 prostate
[8] = tested on: EKVX NSCLC
[9] = tested on: HCC-2998 colon
[10] = tested on: HCT-116 colon
[11] = tested on: HCT-15 colon
[12] = tested on: HOP-62 NSCLC
[13] = tested on: HOP-92 NSCLC
[14] = tested on: HS 578T breast
[15] = tested on: HT29 colon
[16] = tested on: IGROV1 ovarian
[17] = tested on: K-562 leukemia
[18] = tested on: KM12 colon
[19] = tested on: LOX IMVI melanoma
[20] = tested on: M14 melanoma
[21] = tested on: MALME-3M melanoma
[22] = tested on: MCF7 breast
[23] = tested on: MDA-MB-231 breast
[24] = tested on: MDA-MB-435
[25] = tested on: MOLT-4 leukemia
[26] = tested on: NCI-H226 lung
[27] = tested on: NCI-H23 lung
[28] = tested on: NCI-H460 lung
[29] = tested on: NCI/ADR-RES ovarian
[30] = tested on: OVCAR-3 ovarian
[31] = tested on: OVCAR-4 ovarian
[32] = tested on: OVCAR-5 ovarian
[33] = tested on: OVCAR-8 ovarian
[34] = tested on: PC-3 prostate
[35] = tested on: RPMI-8226 leukemia
[36] = tested on: SF-268 CNS
[37] = tested on: SF-295 CNS
[38] = tested on: SK-MEL-2 melanoma
[39] = tested on: SK-MEL-28 melanoma
[40] = tested on: SK-MEL-5 melanoma
[41] = tested on: SK-OV-3 ovarian
[42] = tested on: SN12C renal
[43] = tested on: SNB-19 CNS
[44] = tested on: SR leukemia
[45] = tested on: SW-620 colon
[46] = tested on: T-47D breast
[47] = tested on: TK-10 renal
[48] = tested on: U251 CNS
[49] = tested on: UACC-257 melanoma
[50] = tested on: UACC-62 melanoma
[51] = tested on: UO-31 renal
[52] = tested on: A498 renal
[53] = tested on: BT-549 breast
[54] = tested on: HL-60(TB) leukemia
[55] = tested on: NCI-H522 lung
[56] = tested on: RXF 393 renal

CCOC(=O)c1cc(C#N)c(=O)n(/N=C(\C)c2ccncc2)c1O
GI50 [1]: > 100 µM | TGI [1]: > 100 µM | GI50 [2]: > 100 µM | TGI [2]: > 100 µM | GI50 [3]: > 100 µM | TGI [3]: > 100 µM | GI50 [4]: > 100 µM | TGI [4]: > 100 µM | GI50 [5]: > 100 µM | TGI [5]: > 100 µM | GI50 [6]: > 100 µM | TGI [6]: > 100 µM | GI50 [7]: > 100 µM | TGI [7]: > 100 µM | GI50 [8]: > 100000 nM | TGI [8]: > 100 µM | GI50 [9]: > 100 µM | TGI [9]: > 100 µM | GI50 [10]: > 100 µM | TGI [10]: > 100 µM | GI50 [11]: > 100 µM | TGI [11]: > 100 µM | GI50 [12]: > 100 µM | TGI [12]: > 100 µM | GI50 [13]: > 100 µM | TGI [13]: > 100 µM | GI50 [14]: > 100 µM | TGI [14]: > 100 µM | GI50 [15]: > 100 µM | TGI [15]: > 100 µM | GI50 [16]: > 100 µM | TGI [16]: > 100 µM | GI50 [17]: > 100 µM | TGI [17]: > 100 µM | GI50 [18]: > 100 µM | TGI [18]: > 100 µM | GI50 [19]: > 100 µM | TGI [19]: > 100 µM | GI50 [20]: > 100 µM | TGI [20]: > 100 µM | GI50 [21]: > 100 µM | TGI [21]: > 100 µM | GI50 [22]: > 100 µM | TGI [22]: > 100 µM | GI50 [23]: > 100 µM | TGI [23]: > 100 µM | GI50 [24]: > 100 µM | TGI [24]: > 100 µM | GI50 [25]: > 100 µM | TGI [25]: > 100 µM | GI50 [26]: > 100 µM | TGI [26]: > 100 µM | GI50 [27]: > 100 µM | TGI [27]: > 100 µM | GI50 [28]: > 100 µM | TGI [28]: > 100 µM | GI50 [29]: > 100 µM | TGI [29]: > 100 µM | GI50 [30]: > 100000 nM | TGI [30]: > 100 µM | GI50 [31]: > 100 µM | TGI [31]: > 100 µM | GI50 [32]: > 100 µM | TGI [32]: > 100 µM | GI50 [33]: > 100 µM | TGI [33]: > 100 µM | GI50 [34]: > 100 µM | TGI [34]: > 100 µM | GI50 [35]: > 100 µM | TGI [35]: > 100 µM | GI50 [36]: > 100 µM | TGI [36]: > 100 µM | GI50 [37]: > 100 µM | TGI [37]: > 100 µM | GI50 [38]: > 100 µM | TGI [38]: > 100 µM | GI50 [39]: > 100 µM | TGI [39]: > 100 µM | GI50 [40]: > 100 µM | TGI [40]: > 100000 nM | GI50 [41]: > 100 µM | TGI [41]: > 100 µM | GI50 [42]: > 100 µM | TGI [42]: > 100 µM | GI50 [43]: > 100 µM | TGI [43]: > 100 µM | GI50 [44]: > 100 µM | TGI [44]: > 100 µM | GI50 [45]: > 100 µM | TGI [45]: > 100 µM | GI50 [46]: > 100 µM | TGI [46]: > 100 µM | GI50 [47]: > 100 µM | TGI [47]: > 100 µM | GI50 [48]: > 100 µM | TGI [48]: > 100 µM | GI50 [49]: > 100 µM | TGI [49]: > 100 µM | GI50 [50]: > 100 µM | TGI [50]: > 100 µM | GI50 [51]: > 100 µM | TGI [51]: > 100 µM

COc1cc(OC)c(/C=C/S(=O)(=O)Cc2cnc(OC)c(N)c2)c(OC)c1
GI50 [1]: < 0.031 µM | TGI [1]: > 100 µM | GI50 [52]: < 10 nM | TGI [52]: > 100 µM | GI50 [2]: < 0.0263 µM | TGI [2]: > 100 µM | GI50 [3]: < 0.0233 µM | TGI [3]: > 100 µM | GI50 [53]: < 25.6 nM | TGI [53]: > 74.6 µM | GI50 [4]: < 0.0177 µM | TGI [4]: > 100 µM | GI50 [5]: < 0.0204 µM | TGI [5]: > 100 µM | GI50 [6]: < 0.0169 µM | TGI [6]: < 0.0322 µM | GI50 [7]: < 0.0202 µM | TGI [7]: > 100 µM | GI50 [8]: 223 nM | TGI [8]: > 100 µM | GI50 [9]: < 0.0333 µM | TGI [9]: > 100 µM | GI50 [10]: < 0.0209 µM | TGI [10]: > 100 µM | GI50 [11]: < 0.019 µM | TGI [11]: > 100 µM | GI50 [54]: < 16.7 nM | GI50 [12]: < 0.0185 µM | TGI [12]: > 100 µM | GI50 [14]: < 0.0202 µM | TGI [14]: > 100 µM | GI50 [15]: < 0.0185 µM | GI50 [16]: < 0.0297 µM | TGI [16]: > 100 µM | GI50 [17]: < 0.013 µM | TGI [17]: > 100 µM | GI50 [18]: < 0.0157 µM | TGI [18]: > 100 µM | GI50 [19]: < 0.0233 µM | TGI [19]: > 100 µM | GI50 [20]: < 0.0173 µM | TGI [20]: > 100 µM | GI50 [21]: > 100 µM | TGI [21]: > 100 µM | GI50 [22]: < 0.0155 µM | TGI [22]: > 100 µM | GI50 [23]: < 0.0276 µM | TGI [23]: > 100 µM | GI50 [25]: < 0.0218 µM | TGI [25]: > 100 µM | GI50 [26]: > 40.1 µM | TGI [26]: > 100 µM | GI50 [27]: < 0.0262 µM | TGI [27]: > 100 µM | GI50 [28]: < 0.02 µM | TGI [28]: > 100 µM | GI50 [55]: < 10 nM | GI50 [29]: < 0.01 µM | TGI [29]: > 100 µM | GI50 [30]: 26.4 nM | TGI [30]: > 100 µM | GI50 [31]: < 0.0456 µM | TGI [31]: > 100 µM | GI50 [32]: < 0.0482 µM | TGI [32]: > 100 µM | GI50 [33]: < 0.024 µM | TGI [33]: > 100 µM | GI50 [34]: < 0.0187 µM | TGI [34]: > 100 µM | GI50 [35]: < 0.0206 µM | TGI [35]: > 100 µM | GI50 [56]: < 10 nM | TGI [56]: > 100 µM | GI50 [36]: < 0.0328 µM | TGI [36]: > 100 µM | GI50 [37]: < 0.0133 µM | TGI [37]: > 100 µM | GI50 [38]: < 0.01 µM | TGI [38]: > 100 µM | GI50 [39]: 20.4 µM | TGI [39]: > 100 µM | GI50 [40]: < 0.014 µM | TGI [40]: 721 nM | GI50 [41]: < 0.0211 µM | TGI [41]: > 100 µM | GI50 [42]: < 0.0232 µM | TGI [42]: > 100 µM | GI50 [43]: < 0.0223 µM | TGI [43]: > 100 µM | GI50 [44]: < 0.0143 µM | TGI [44]: > 100 µM | GI50 [45]: < 0.0188 µM | TGI [45]: > 100 µM | GI50 [47]: > 100 µM | TGI [47]: > 100 µM | GI50 [48]: < 0.0224 µM | TGI [48]: > 100 µM | GI50 [49]: > 62 µM | TGI [49]: > 100 µM | GI50 [50]: < 0.01 µM | TGI [50]: > 100 µM | GI50 [51]: < 0.0251 µM | TGI [51]: > 100 µM
